Data taken from publication PMC2692652 (Biochemistry, 2009).

Legend:
Native M. tb PGDH [1] = target: T1, Native M. tb PGDH (Mycobacterium tuberculosis, UniProt P9WNX3); assay: Stopped-flow time course of NADH turnover with kinetic simulation to Scheme 2; assay type: biochemical; settings: for k+i / k-i: from simulation
Human PGDH = Human PGDH (Homo sapiens, UniProt O43175); assay: Inhibition of human PGDH; assay type: biochemical; settings: unpublished observation
Native M. tb PGDH [2] = target: T1, Native M. tb PGDH; settings: read-out: Ki, HPAP (substrate inhibition); cited from earlier work
Native M. tb PGDH [3] = target: T1, Native M. tb PGDH; assay type: biochemical; settings: HPAP 400 μM, NADH varied, 200 mM potassium phosphate, pH 7.5
Native M. tb PGDH [4] = target: T1, Native M. tb PGDH; assay type: binding; settings: no substrate, excitation 295 nm, fluorescence 420 nm, pH 7.5
M. tb PGDH [5] = assay: Transient binding of NADH to the enzyme in the absence of substrate; design: species or system Mycobacterium tuberculosis; settings: read-out: Kd of NADH at the second (anion-binding) site; calculated from the rates of NADH binding determined in the absence of substrate
M. tb PGDH [6] = settings: cited from earlier work
M. tb PGDH [7] = settings: cited from earlier work; remark: listed apart in the source
Native M. tb PGDH [8] = target: T1, Native M. tb PGDH; assay type: biochemical; settings: high HPAP level where substrate inhibition is significant, pH 7.5
[9] = step ES + N = ESN (NADH to active site)
[10] = step ES + N = NES (NADH to second site)
[11] = step ESN + N = NESN (NADH to second site)
[12] = step SES + N = SESN (NADH to active site)

T1 sequence (P9WNX3 whole entry): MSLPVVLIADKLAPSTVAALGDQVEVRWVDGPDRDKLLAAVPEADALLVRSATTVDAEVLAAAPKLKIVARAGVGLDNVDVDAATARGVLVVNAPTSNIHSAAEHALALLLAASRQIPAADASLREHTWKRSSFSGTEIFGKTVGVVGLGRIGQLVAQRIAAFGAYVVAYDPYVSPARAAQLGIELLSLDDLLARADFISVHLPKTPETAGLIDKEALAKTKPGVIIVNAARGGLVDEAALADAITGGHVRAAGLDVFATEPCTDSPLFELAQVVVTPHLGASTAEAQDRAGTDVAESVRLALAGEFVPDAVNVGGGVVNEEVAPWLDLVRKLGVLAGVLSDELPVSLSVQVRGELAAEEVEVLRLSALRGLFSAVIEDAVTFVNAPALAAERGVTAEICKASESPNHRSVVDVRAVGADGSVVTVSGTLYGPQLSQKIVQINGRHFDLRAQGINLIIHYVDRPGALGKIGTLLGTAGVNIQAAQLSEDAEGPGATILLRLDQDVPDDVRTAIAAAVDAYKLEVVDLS
Chain of Human PGDH (O43175 whole entry): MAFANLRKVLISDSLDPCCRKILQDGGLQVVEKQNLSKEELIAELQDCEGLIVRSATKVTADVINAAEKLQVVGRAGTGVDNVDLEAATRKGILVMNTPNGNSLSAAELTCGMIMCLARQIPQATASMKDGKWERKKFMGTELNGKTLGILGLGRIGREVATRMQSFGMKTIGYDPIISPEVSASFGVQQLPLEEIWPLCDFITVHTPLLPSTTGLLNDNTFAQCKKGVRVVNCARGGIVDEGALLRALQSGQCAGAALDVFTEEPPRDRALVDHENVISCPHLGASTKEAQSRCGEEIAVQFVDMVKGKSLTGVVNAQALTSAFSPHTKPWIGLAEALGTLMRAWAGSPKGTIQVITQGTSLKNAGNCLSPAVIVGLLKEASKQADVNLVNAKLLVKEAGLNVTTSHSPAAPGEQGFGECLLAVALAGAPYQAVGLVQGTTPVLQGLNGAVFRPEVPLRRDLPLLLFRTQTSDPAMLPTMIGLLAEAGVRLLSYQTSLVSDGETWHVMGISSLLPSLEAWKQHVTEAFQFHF

hydroxypyruvic acid phosphate [HPAP]
Kd (Native M. tb PGDH [1]; read-out: Kd for HPAP at the second (anion-binding) site): ~8 µM
Substrate inhibition by HPAP (Human PGDH): displays substrate inhibition
Ki (Native M. tb PGDH [2]): 950 ± 120 µM

NADH
K0.5, Activity vs NADH (Native M. tb PGDH [3]): 106 ± 5 µM
n (Hill coefficient), Activity vs NADH (Native M. tb PGDH [3]): 2.5 ± 0.2
K0.5, FRET vs NADH (Native M. tb PGDH [4]): 3.2 ± 0.1 µM
n (Hill coefficient), FRET vs NADH (Native M. tb PGDH [4]): 1.6 ± 0.1
k+i (Native M. tb PGDH [1]; [9]): 4.09e+08 M⁻¹ s⁻¹
k-i (Native M. tb PGDH [1]; [9]): 70 s⁻¹
k+i (Native M. tb PGDH [1]; [10]): 0 M⁻¹ s⁻¹
k-i (Native M. tb PGDH [1]; [10]): 0 s⁻¹
k+i (Native M. tb PGDH [1]; [11]): 0 M⁻¹ s⁻¹
k-i (Native M. tb PGDH [1]; [11]): 0 s⁻¹
k+i (Native M. tb PGDH [1]; step NES + N = NESN (NADH to active site)): 7.59e+08 M⁻¹ s⁻¹
k+i (Native M. tb PGDH [1]; [12]): 190000 M⁻¹ s⁻¹
k-i (Native M. tb PGDH [1]; [12]): 3 s⁻¹
Kd (M. tb PGDH [5]): ~0.6 µM
k+i (M. tb PGDH [6]): 0.37 ^c μM^-1s^-1
k-i (M. tb PGDH [6]): 0.22 ^c s^-1

O=C(O)C(O)C(O)C(=O)O (stereo not shown) [tartrate]
Effect of tartrate binding to the anion-binding site on rate of catalysis (M. tb PGDH [7]): does not effect the rate of catalysis

N[C@@H](CO)C(=O)O [L-serine]
n (Hill coefficient), serine inhibition, High Substrate (Native M. tb PGDH [8]): 1.5 ± 0.1
Inhibition by L-serine (Human PGDH): not inhibited
